Data published in patent US20120114706A1, “Endorphin Therapy Compositions and Methods of Use Thereof” (priority 2008, published 2012).
“Also recorded” adds a separate entry of the source.

Assays:
[1] = system: rat hypothalamic neuronal stem cells (NSCs); test: Differentiation of hypothalamic neuronal stem cells to BEP neurons in culture; assay type: cell-based; details: agent alone, 0.1-10 μM
Experimental: Fetal brains were obtained from 17-day-old pregnant rats (Simonsen laboratories; Gilroy, […].). Mediobasal hypothalamic tissues from these rats were dissected out and cells from these tissues were dissociated, and mixed hypothalamic cell cultures were prepared as previously described (De et al. (1994) J. Biol. Chem., 269:26697-26705). Neurons were separated from glial cells by filtering mixed hypothalamic cells through a 48-μM nylon mesh. Then hypothalamic cells were sedimented at 400 g for 10 minutes; pellets were re-suspended in HEPES-buffered Dulbecco's Modified Eagle's Medium (HDMEM, 4.5 g/l glucose; Sigma, St. Louis, Mo.); and cells were cultured into poly-ornithine coated 25-cm^2 tissue culture flasks (2.5 million cells/flask) in HDMEM-containing 10% fetal bovine serum (FBS) and 1% penicillin/streptomycin. On day 2, the culture medium was replaced with HDMEM containing 10% FBS, 33.6 μg/ml uridine and 13.6 μg/ml 5-fluodeoxyuridine to prevent the overgrowth of astroglial cells. All of these chemicals were obtained from Sigma. On day 3, the culture medium was replaced with HDMEM-containing serum supplement (30 nM selenium, 20 nM progesterone, 1 μM iron-free human transferrin, 5 μM insulin, and 100 μM putrescin) and 1% penicillin/streptomycin. […] By this time, these cultures were approximately 85-90% neurons, as determined by MAP-2 positivity. […]

MADB106 cells = test: Pharmacologic modification of autonomic influence on immune system and lung metastasis; assay type: in vivo, rat; details: for PBMC NK cell activity / macrophage migration activity: 24 hours after MADB106 inoculation, naloxone 10, MP/MET 0.8, MLA 2.5 mg/kg or saline; for effect on β-EP elimination of tumor cell lung retention: β-EP transplanted Fischer rats, naloxone 10, MP/MET 0.8, MLA 2.5 mg/kg for 8 days
Experimental: 48 β-EP implanted (SC) male Fischer rats and 48 control (C) male Fischer rats were divided into 8 groups, treated with saline, Naloxone (10 mg/kg body weight), Metaproterenol (MP, 0.8 mg/kg body weight), or Methyllycaconitine (MLA, 2.5 mg/kg body weight), respectively. Animals were treated with drugs for 8 days. In the second day of drug injection, animals were inoculated with MADB106 cells (100,000/0.2 ml/rat). 24 hours after tumor cell inoculation, blood was collected by orbital puncture. Plasma was collected, and PBMCs were separated for migration assay and NK cytolytic assay. 7 days after tumor inoculation, blood was taken again by orbital puncture. Plasma was collected, and PBMCs were separated for migration assay and T cell cytolytic assay. After 6 weeks, animals were sacrificed, and brains, spleens and blood were frozen. Lungs were fixed in formalin and processed to H&E staining. […] However, 7 days after tumor inoculation, there isn't a clear pattern of T cell cytolytic activity and macrophage migration activity between groups (FIGS. 30B and 30D).
It was hypothesized that the beneficial effect of BEP neuron transplants on immune function is regulated through autonomic nervous system, and that central BEP modulate peripheral immune function by inhibiting the sympathetic activity and activating the parasympathetic activity. Metaproterenol (MET) is an agonist for β-receptors, which are a class of G protein-coupled receptors that are targets of the catecholamines, especially norepinephrine and epinephrine (Dokur et al. (2004) J Neuroimmunol 5:148-57; Page et al. (2008) J Neuroimmunol 193:113-9). Methyllycaconitine (MLA) is a selective antagonist of α7 nicotine acetylcholine receptor (α7 nAChR; Wu et al. (2011) Clin Cancer Res 17:3533-41). By injecting MET and MLA i.p., the stimulation of sympathetic nerves and inhibition of parasympathetic nerves was mimicked. Naloxone, an opiate receptor antagonist, was used to test whether BEP neuronal effects is acted via opiodergic receptor (Boyadjieva et al. (2006) Alcohol Clin Exp Res 30:1761-7). Forty-eight BEP neuron-transplanted Fischer rats and 48 control rats were divided into 8 groups and treated with saline, naloxone (10 mg/kg body weight), MET (0.8 mg/kg body weight), or MLA (2.5 mg/kg body weight) for 8 days (the doses used for these drugs are recognized as effective biological doses). A day after the first injection of these agents, animals were inoculated with MADB106 cells (100,000/0.2 mL/rat). Twenty-four hours after tumor cell inoculation, blood was collected by orbital puncture. Plasma was collected, and peripheral blood mononuclear cells (PBMC) were separated for migration assay and NK cytolytic assay. These animals continued receiving the blocker treatments for 7 days. After 4 weeks they were sacrificed, their lungs were fixed in formalin and processed to H&E staining for determination of cancer pathology. Brain tissues were processed for verification of the site and viability of BEP cell transplantation.

[2] = system: differentiated BEP neurons; test: PGE1-induced BEP release and POMC expression of differentiated neurons; assay type: cell-based, rat; details: PGE1 10 μM
Experimental: Enriched hypothalamic neurons were maintained in HDMEM, containing 10% FBS, for 3 weeks. Each week, cells were trypsinized and cultured. By the beginning of the third week, many spheres started to develop. These spheres were separated and dissociated into single cells by using trypsin/EDTA (Sigma) solution. They were then cultured in suspension or in poly-L-ornithine-coated 24-well plates (20,000 cells/well) in stem cell medium (DME F-12, […] (LIF), 0.1 μg/ml; L-glutamine, 10 mM; rat bFGF, 20 ng/ml; Mem amino acids solution, MAA, 0.5%; all of the chemicals were from Sigma except that bFGF was obtained from R&D Systems, Minneapolis, Minn.). Cells were cultured for 2 weeks, during which they grew and developed secondary spheres. Some of these cultures were used for immunocytochemical localization of nestin staining to determine whether they were neurospheres. These neurospheres were maintained in cultures for several months by regularly changing the medium and by splitting cells. The secondary spheres were re-suspended and cultured in poly-L-ornithine-coated 24-well plates (20,000/well; for physiological studies) or in poly-L-ornithine-coated 8-well permanox slides (1000 cells/slide; NaIg Nunc International Corp., IL; for histochemical studies). The differentiation experiments were performed by treating these cells for 1 week with PACAP (1-10 μM; SynPep) and dbcAMP (1-10 μM; Sigma) or a combination of both, and then in defined cell culture medium without the drugs for 1 week. At day 3, day 7 and day 14 the immunocytochemical, biochemical and/or real-time RT-PCR analyses were performed.
The immunoreactive β-endorphin levels in culture medium samples were measured by a radioimmunoassay system (De et al. (1994) J. Biol. Chem., 269:26697-26705). All the samples were dried and reconstituted in assay buffer and measured in duplicate in a single assay. The minimum amount of β-endorphin detectable was 3 pg/tube.
Expression levels of POMC mRNA in NSCs and differentiated cells were measured by a quantitative real-time RT-PCR (TaqMan assay) on an ABI PRISM 7700 Sequence Detector (PerkinElmer Applied Biosystems, Foster City, Calif.) as described previously (Chen et al. (2004) J. Neurochem., 88:1547-1554). […] The expression of POMC mRNA was detected using a POMC gene-specific primer pair and probe (TaqMan Gene Expression Assay, Rn00595020_ml; Applied Biosystems; Foster City, Calif.). […] The relative quantity of mRNA was calculated by relating the PCR threshold cycle obtained from the tested samples to relative standard curves degenerated from a serial dilution of cDNA prepared from the total RNA. The POMC mRNA level in each sample was normalized with the level of GAPDH mRNA which was measured by a control reagent (PerkinElmer Applied Biosystems). […]

Molecule	effect on neurosphere differentiation [1]	PBMC NK cell activity (MADB106 cells)	macrophage migration activity (MADB106 cells)	effect on β-EP elimination of tumor cell lung retention (MADB106 cells)	also measured
CCCC(=O)Nc1ncnc2c1ncn2[C@@H]1O[C@@H]2COP(=O)(O)O[C@H]2[C@H]1OC(=O)CCC [dbcAMP, dibutyryl cAMP]	moderate effect				
CC(C)NCC(O)c1cc(O)cc(O)c1 (stereo not drawn) [MP, Metaproterenol]		reversed the effect of β-EP	reversed the effect of β-EP	stopped the effect of β-EP	PBMC NK cell activity (MADB106 cells; listed as MET): moderate or strong inhibitory effect; macrophage migration activity (MADB106 cells; listed as MET): moderate or strong inhibitory effect; effect on β-EP elimination of tumor cell lung retention (MADB106 cells; listed as MET): prevented, at various degrees
CCN1C[C@]2(COC(=O)c3ccccc3N3C(=O)C[C@H](C)C3=O)CC[C@H](OC)[C@@]34[C@@H]5C[C@H]6[C@H](OC)[C@@H]5[C@](O)(C[C@@H]6OC)[C@@](O)([C@@H](OC)[C@H]23)[C@@H]14 [MLA, Methyllycaconitine]		reversed the effect of β-EP; also recorded: moderate or strong inhibitory effect	reversed the effect of β-EP; also recorded: moderate or strong inhibitory effect	stopped the effect of β-EP; also recorded: prevented, at various degrees	
CCCCC[C@H](O)/C=C/[C@H]1[C@H](O)CC(=O)[C@@H]1CCCCCCC(=O)O [PGE1, prostaglandin E1]					BEP release ([2]; cells at 1 week): only moderately enhanced; POMC expression ([2]; cells at 1 week): no effect; BEP-release response ([2]; cells at 2 weeks): significantly increased; POMC-expression response ([2]; cells at 2 weeks): significantly increased
pituitary adenylate cyclase-activating peptide [PACAP]	moderate effect				
